Assays:
[1] = tested on: patients with relapsed or refractory (R/R) FL; conditions: for Dose reductions: n = 56
Text: This Phase Ib/II, open label, multicenter, non-randomized, dose-escalation study evaluated the safety, efficacy, and pharmacokinetics of induction treatment consisting of obinutuzumab (GA101 or G) in combination with polatuzumab vedotin (anti-CD79b(huMA79b.v28)-MC-vc-PAB-MMAE ADC (DCDS4501A) or Pola) and lenalidomide (Len) (G+Pola+Len) in patients with relapsed or refractory (R/R) FL, followed by post induction treatment with obinutuzumab in combination with lenalidomide. The study included an initial dose-escalation phase, followed by an expansion phase during which polatuzumab vedotin and lenalidomide were given at their recommended Phase II doses (RP2Ds).
The primary efficacy endpoint was based on IRC assessment of response. Patients were monitored closely for adverse events throughout the study and for at least 90 days after the last dose of study treatment. To characterize the pharmacokinetic (PK) properties of obinutuzumab, polatuzumab vedotin, and lenalidomide, blood samples were obtained at various timepoints before and during study treatment administration
Safety assessments consist of monitoring and recording adverse events, including serious adverse events and non-serious adverse events of special interest, performing protocol-specified safety laboratory assessments, measuring protocol-specified vital signs, and conducting other protocol-specified tests that were deemed critical to the safety evaluation of the study.
The safety analyses include all treated patients (i.e., patients who received any amount of study treatment). Safety is assessed through summaries of adverse events and changes from baseline in laboratory test results, shift-tables of ECGs findings, and vital signs. All adverse events occurring on or after first study treatment are summarized by mapped term, appropriate thesaurus levels, and NCI CTCAE, Version 4.0 grade. All serious adverse events, adverse events of special interest, and selected adverse events are summarized and listed. Deaths reported during the treatment period and during post-treatment follow-up are listed and summarized.
Adverse Events: NCI CTCAE, Version 4.0 is used for assessing adverse event severity. All adverse events are reported until 90 days after the last dose of study treatment. After this period, the investigator reports any serious adverse events that are believed to be related to prior study treatment and events of second malignancies for patients who received obinutuzumab. Grade 3 and 4 infections (both related and unrelated) are reported until up to 2 years after the last dose of obinutuzumab.
Infusion-Related Reactions: Adverse events that occur during or within 24 hours after the end of study treatment infusion and are judged to be related to infusion of any of the study treatment components are captured as a diagnosis (e.g., “infusion-related reaction”). If a patient experiences both a local and systemic reaction to the same dose of study treatment, each reaction is recorded separately, with signs and symptoms also recorded separately.

[2] = tested on: patients with relapsed or refractory (R/R) FL; test: Phase Ib/II study, dose-escalation phase: dose-limiting toxicities and recommended Phase II dose
Text: The purpose of the FL dose-escalation phase was to identify the RP2D for polatuzumab vedotin and the RP2D for lenalidomide when combined with a fixed dose of obinutuzumab as induction treatment.
Patients were closely monitored for adverse events during the dose limiting toxicity (DLT) assessment window, defined as the first treatment cycle (from Day 1 of Cycle 1 to Day 1 of Cycle 2). Patients experiencing a DLT during the DLT assessment period continued receiving study treatment once the event resolved if determined it was safe to continue treatment and there was potential for clinical benefit. Patients who discontinued from the study prior to completing the DLT assessment window for reasons other than a DLT were considered non-evaluable for dose-escalation decisions and RP2D assessments and were replaced by an additional patient at that same dose level. Patients who missed one or more doses of polatuzumab vedotin or obinutuzumab or five consecutive daily doses of lenalidomide during the DLT assessment window for reasons other than a DLT were also replaced and considered non-evaluable for dose-escalation decisions. Patients who received supportive care during the DLT assessment window that could confound the evaluation of DLTs were replaced at the discretion of the Medical Monitor.
A standard 3+3 dose-escalation schema was used. […]

[3] = Example 1 interim, n = 52, given as G+Pola+Len

Molecule	AEs leading to lenalidomide dose interruptions [1, 3]	AEs leading to lenalidomide dose reduction [1, 3]	Patients who required lenalidomide dose reductions ([1]; Example 2, during maintenance)	Recommended Phase II dose (RP2D) ([2]; combined with polatuzumab vedotin and fixed dose of 1000 mg obinutuzumab)	Dose reductions ([1]; Example 2, given as G+Pola+Len)	Recommended Phase II dose (RP2D) ([2]; combined with lenalidomide and fixed dose of 1000 mg obinutuzumab)
Nc1cccc2c1CN(C1CCC(=O)NC1=O)C2=O (stereo not shown) [lenalidomide, 3-(4-amino-1-oxo-2,3-dihydro-1H-isoindol-2-yl)piperidine-2,6-dione]	52%	31%	Two	20 mg	–	–
polatuzumab vedotin	–	–	–	–	no dose reductions	1.4 mg/kg
obinutuzumab: anti-CD20 antibody; afucosylated glyco-engineered humanized B-Ly1 antibody	–	–	–	–	no dose reductions	–
